In article PMC10572602, “Molecular Mechanism of STIL Coiled-Coil Domain Oligomerization” (International Journal of Molecular Sciences, 2023):
Like-named read-outs stand apart in the source and are kept apart here.

What was measured:
[1] = system: STIL CCD peptide; test: AUC sedimentation equilibrium (SE), oligomeric state; assay type: physicochemical; settings: starting concentration 500 µM, triplicate, absorbance 280 nm, 95% confidence limits
Procedure: To quantify the dissociation constants of the possible monomer-dimer and dimer-tetramer transitions, we used fluorescence-based binding measurements. Using micro-scale thermophoresis, fluorescence measurements were taken at increasing concentrations of WT CCD peptide in a fixed background of 5 µM fluorophore-labelled peptide. […] Fitting the fluorescence data to the Hill equation provided a dissociation constant of 8 ± 2 µM and a cooperativity of 1.2 ± 0.3 (Figure 2B, Table S4). We interpret this as being for the monomer-dimer transition, and that the fluorescence measurements are insensitive to the higher-order oligomerization. […] To probe the possible dimer-tetramer transition, we turned to AUC-SE measurements with starting concentrations of 5, 10, and 20 µM of STIL WT CCD peptide (Figures S18 and S19). The equilibrated data were fitted first to a model for a single ideal species, which provided a species 2.9 × monomer mass (Table 1). […] It should be noted that the dimerization constant of the WT peptide was measured in the presence of 5% DMSO and using a fluorophore-labeled peptide, while the tetramerization constant was measured without DMSO and unlabeled peptides. The addition of the label and the presence of the DMSO, which was unavoidable for making the labeled peptide soluble, may have affected the measured dimerization constant. Thus, we avoid directly comparing the values obtained by the two methods.
(§1) Analytical ultracentrifugation (AUC) experiments were carried out using a Beckman Optima XL-A or XL-I analytical ultracentrifuge. Measurements were performed at 20 °C unless otherwise stated, using an An-50 or An-60 rotor, in Sodium Phosphate Buffer pH 6.8 (25 mM Na2PO4 with addition of 137 mM NaCl, pH measured using Jenway (TM) 3510 benchtop and adjusted using 1M HCl and 1M NaOH solutions). The partial specific volume ( υ¯ ) for each peptide were calculated in Sedfit using values from Cohn and Edsall. The buffer densities and viscosities were calculated using UltraScan III [54].
AUC sedimentation equilibrium (SE) experiments were run at multiple concentrations in a 6-Channel Epon charcoal-filled centerpiece. The samples were centrifuged at a range of speeds between 22–48 krpm. Absorbance scans across the radial range were recorded twice at each speed to ensure equilibration. Data were fitted to single, ideal species models or monomer-dimer equilibrium using Sedphat. In total, 95% confidence limits were obtained via Monte-Carlo analysis of the obtained fits. The quality of the fit was evaluated using the χ^2 parameter to observe which model best fit the data. Both fits of the data, where performed in Figures S18–S23 with their corresponding fit information.

[2] = ref [14]; cited from earlier work
Excerpt: Presumably, this is due to the disruption of the hydrophobic CC interactions upon mutation from the hydrophobic Leu to the charged Glu. […] Other ...

[3] = assay type: physicochemical; settings: for Tm: CD 222 nm, Boltzmann fit
Excerpt: (§2) Next, we used circular dichroism (CD) spectroscopy to probe the secondary structures of these WT CCD peptide assemblies. […] The spectra all had minima at 208 and 222 nm indicative of largely α-helical structures. From the high-concentration spectra we estimated ≈47% helix. To compare how the stabilities of these helical assemblies changed with concentration, we followed the changes in MRE222 with temperature over the same concentration range (Figure 2D, Table S1). Sigmoidal curves indicative of cooperative unfolding were apparent at all concentrations, indicating a cooperatively folded, oligomeric species. […] The temperature-dependent CD measurements were performed to determine the oligomerization-dependent thermal stability of the CCD. […] CD spectra of the peptides were recorded using a J-810 spectropolarimeter (Jasco) in a 0.1 cm and 1 cm quartz cuvette for far-UV CD spectroscopy, in a spectral range of 190 nm to 260 nm. The buffer used in the CD measurements was 25 mM sodium phosphate buffer pH = 6.8 with ionic strength of 154 mM (adjected by NaCl). The thermal melting of all STIL CCD peptides were measured as described. The graphs were fitted to Boltzmann equation in order to generate the Tm. Normalization to mean residue ellipticity was performed. The 100% helicity was calculated (with normalization to the length of the peptide and the condition of the measurement) as MRE × 10^−3 of −38 (Deg × cm^2 × dmol^−1 × res^−1).

[4] = CD spectroscopy, helicity; assay type: physicochemical; settings: 5 °C
Excerpt: as §2

[5] = system: STIL CCD peptide; test: AUC sedimentation velocity (SV), oligomeric state; assay type: physicochemical; settings: for sw / mw (solution mass from c(s) fit) / f/f0 / sw(20,w) / oligomeric state (average number of monomers in the oligomer): AUC-SV, 60 krpm; for sw / mw (solution mass from c(s) fit) / oligomeric state (average number of monomers in the oligomer): 20 °C; for sw / mw (solution mass from c(s) fit) / f/f0 / sw(20,w): pH 6.8; for mw (solution mass from c(s) fit) / oligomeric state (average number of monomers in the oligomer): 95% confidence level; for oligomeric state (average number of monomers in the oligomer): continuous c(s), 25 mM sodium phosphate pH 6.8, NaCl
Procedure: Previously, we and others have shown by size-exclusion chromatography and multi-angle light scattering that the oligomerization of a STIL CCD peptide is concentration dependent. However, these studies were qualitative and the interaction was not quantified. To quantify the oligomerisation of the STIL CCD peptide, analytical ultracentrifugation (AUC) sedimentation velocity (SV) and sedimentation equilibrium (SE) experiments were performed (Figure 2A, Table 1 and Figures S4–S9, S18 and S19). AUC-SV experiments were conducted at several concentrations to explore how the oligomeric state changed with concentration in the low-to-high µM concentration range, and also to estimate the dissociation constants of the oligomerization of the STIL CCD peptide.
as §1
Sedimentation velocity (SV) experiments were performed in EPON 2-channel centerpieces with quartz windows or aluminium centrepieces with sapphire windows. The samples were centrifuged at 50 or 60 krpm where stated, with absorbance measurements taken from a radial range of 5.7–7.3 cm. 120 scans were taken at 5 min intervals, the data were fit in Sedfit to a continuous c(s) distribution model at a 95% confidence level. The frictional ration and baseline were floated, and Time-invariant and Radial-invariant noise were fit. Initially data were fit between a range of Svedberg ratio of 0–15, but this was reduced to 0–3 for all data as there were no larger species. The residuals for each individual fit are shown in Figures S14–S17 as a bitmap in which the color indicates the difference between the model fit and the raw data over the radial range to which the data were fitted. The scans are in vertical chronological order.

## L SPDAYRF LTEQDRQ LRLEQAQ IQRLLEA QSL-NH2 [STIL CCD718–749 L736E, STIL CCD peptide with destabilising L736E mutation; PDB 8oyk]
[1]
  mass, single species model, SE: 3038 ± 292 Da
[1]; single species fit, 20 °C, pH 6.8
  AUC oligomeric state, SE: 0.79 ± 0.08 (500 µM) × monomer mass
[2]
  thermal stability of mutant peptide (in words): leads to a decrease in its thermal stability
[3]; 5 µM, sodium phosphate pH 6.8
  Tm: 18±1 °C
[3]; 25 µM, sodium phosphate pH 6.8
  Tm: 17±2 °C
[3]; 50 µM, 25 mM sodium phosphate pH 6.8, 154 mM NaCl
  Tm: 10 ± 2 °C
[3]; 100 µM, sodium phosphate pH 6.8
  Tm: 12±1 °C
[3]; pH 6.8
  concentration dependence of Tm / thermal stability (in words): No detectable change in the Tm at different L736E concentrations
[4]; different peptide concentrations (WT 5–100 µM), pH 6.8
  concentration dependence of CD spectrum / helical folding (in words): no concentration dependence
[4]; CD at 50 µM, 25 mM sodium phosphate pH 6.8, 154 mM NaCl
  MRE222 nm: −23.3 kdeg cm^2 dmol^−1 res^−1
[4]; from MRE222 (100% = −38), CD at 50 µM, 25 mM sodium phosphate pH 6.8, 154 mM NaCl
  % Helicity: 62%
[5]; 10 µM
  Oligomeric State (at 10 µM): Monomer
  sw: 0.590 S
  mw (solution mass from c(s) fit): 3849 Da
  f/f0: 1.460
  sw(20,w): 0.608 S
[5]; 10 µM, absorbance
  oligomeric state (average number of monomers in the oligomer): 1.00 × monomer mass
[5]; 10 µM, absorbance, listed as CCD718–749-L736E
  oligomeric state (average number of monomers in the oligomer): 1 × monomer mass
[5]; 10 µM, absorbance, listed as STIL-L736E
  oligomeric state (average number of monomers in the oligomer): 1.0 × monomer mass
[5]; 500 µM
  sw: 0.721 S
  mw (solution mass from c(s) fit): 3871 Da
  f/f0: 1.201
  sw(20,w): 0.742 S
  oligomeric state (average number of monomers in the oligomer): 1 × monomer mass
[5]; 500 µM, listed as STIL-L736E
  oligomeric state (average number of monomers in the oligomer): 1.0 × monomer mass
